Experimental data reported in EP0912195B1, “VACCINE COMPRISING ANTIGENS BOUND TO CARRIERS THROUGH LABILE BONDS” (PEPSCAN SYSTEMS B.V., priority 1996, dated 1997).
Residues, ends and D or L forms follow the SMILES beside them. *: point of attachment. Palmitoyl = CCCCCCCCCCCCCCCC(=O)*

Settings: 3 hours

| Structure (SMILES) | stability of thioesters during acidolytic removal of tert-butyloxy functions and/or cleavage of the resin-peptide bond |
| --- | --- |
| CCCCCCCCCCCCCCCC(=O)SC[C@H](NC(C)=O)C(=O)N[C@H](C(=O)N[C@@H](C)C(=O)N[C@H](C(=O)N[C@@H](CCC(N)=O)C(=O)N[C@@H](CC(C)C)C(=O)N1CCC[C@H]1C(=O)N[C@@H](C)C(=O)N[C@@H](CO)C(=O)N[C@@H](Cc1ccccc1)C(N)=O)[C@@H](C)O)C(C)C [Ac-C(palm)VATQLPASF-NH2] (Ac-C(Palmitoyl)VATQLPASF-NH2) | stable under all these acidic conditions |
| CCCCCCCCCCCCCCCC(=O)SC[C@H](NC(C)=O)C(=O)N[C@@H](CO)C(=O)N[C@@H](CCC(=O)O)C(=O)N[C@H](C(=O)N[C@@H](Cc1ccccc1)C(=O)N[C@@H](CCCNC(=N)N)C(=O)N1CCC[C@H]1C(=O)NCC(=O)NCC(=O)NCC(=O)N[C@@H](CC(=O)O)C(=O)N[C@@H](CCSC)C(=O)N[C@@H](CCCNC(=N)N)C(N)=O)[C@@H](C)CC [Ac-C(palm)SEIFRPGGGDMR-NH2] (Ac-C(Palmitoyl)SEIFRPGGGDMR-NH2) | stable under all these acidic conditions |
